Test results as given in PubChem BioAssay (NCI).
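All cell lines were grown in 96-well plates and treated with compound for 48 hours. TGI: concentration producing complete growth inhibition.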

Columns and labels:
Assay in all cases: inhibition of tumour cell growth, NCI panel, 48 h
786-0 renal = tested on: 786-0 renal
A498 renal = tested on: A498 renal
A549 NSCLC = tested on: A549 NSCLC
ACHN renal = tested on: ACHN renal
BT-549 breast = tested on: BT-549 breast
CAKI-1 renal = tested on: CAKI-1 renal
COLO 205 colon = tested on: COLO 205 colon
DU-145 prostate = tested on: DU-145 prostate
EKVX NSCLC = tested on: EKVX NSCLC
HCC-2998 colon = tested on: HCC-2998 colon
HCT-116 colon = tested on: HCT-116 colon
HCT-15 colon = tested on: HCT-15 colon
HOP-62 NSCLC = tested on: HOP-62 NSCLC
HOP-92 NSCLC = tested on: HOP-92 NSCLC
HS 578T breast = tested on: HS 578T breast
HT29 colon = tested on: HT29 colon
IGROV1 ovarian = tested on: IGROV1 ovarian
K-562 leukemia = tested on: K-562 leukemia
KM12 colon = tested on: KM12 colon
M14 melanoma = tested on: M14 melanoma
MALME-3M melanoma = tested on: MALME-3M melanoma
MCF7 breast = tested on: MCF7 breast
MDA-MB-231 breast = tested on: MDA-MB-231 breast
MDA-MB-435 = tested on: MDA-MB-435
MDA-N = tested on: MDA-N
MOLT-4 leukemia = tested on: MOLT-4 leukemia
NCI-H23 lung = tested on: NCI-H23 lung
NCI-H460 lung = tested on: NCI-H460 lung
NCI-H522 lung = tested on: NCI-H522 lung
NCI/ADR-RES ovarian = tested on: NCI/ADR-RES ovarian
OVCAR-3 ovarian = tested on: OVCAR-3 ovarian
OVCAR-4 ovarian = tested on: OVCAR-4 ovarian
OVCAR-5 ovarian = tested on: OVCAR-5 ovarian
OVCAR-8 ovarian = tested on: OVCAR-8 ovarian
PC-3 prostate = tested on: PC-3 prostate
RPMI-8226 leukemia = tested on: RPMI-8226 leukemia
RXF 393 renal = tested on: RXF 393 renal
SF-268 CNS = tested on: SF-268 CNS
SF-295 CNS = tested on: SF-295 CNS
SK-MEL-2 melanoma = tested on: SK-MEL-2 melanoma
SK-MEL-28 melanoma = tested on: SK-MEL-28 melanoma
SK-MEL-5 melanoma = tested on: SK-MEL-5 melanoma
SK-OV-3 ovarian = tested on: SK-OV-3 ovarian
SNB-19 CNS = tested on: SNB-19 CNS
SNB-75 CNS = tested on: SNB-75 CNS
SW-620 colon = tested on: SW-620 colon
TK-10 renal = tested on: TK-10 renal
U251 CNS = tested on: U251 CNS
UACC-257 melanoma = tested on: UACC-257 melanoma
UACC-62 melanoma = tested on: UACC-62 melanoma
UO-31 renal = tested on: UO-31 renal

Measured: TGI

CCCCN1CCC(O)(c2cc(C(=O)O)[nH]c2-c2cc(C)no2)C1=O (stereo unspecified)
> 100 µM: all assays above
